According to patent publication US4401660A, “Ester derivatives of 5-O-mycaminosyl tylonolide and method of using same” (Eli Lilly and Company, priority 1981, dated 1983):

Experiments:
[1] = tested on: Haemophilus influenzae Holt; test: MIC, standard agar-dilution assay (Table II); assay type: cell-based; parameters: unit not given here; settings: ampicillin-sensitive strain
Protocol: (§1) The MIC's in Table II were determined by standard agar-dilution assays. The MIC's in Table III were obtained using a conventional broth-dilution microtiter test.

[2] = tested on: Haemophilus influenzae R252; test: MIC, standard agar-dilution assay (Table II); assay type: cell-based; parameters: unit not given here; settings: Haemophilus influenzae R252, ampicillin-resistant strain
Protocol: as §1

[3] = tested on: Staphylococcus aureus S13E; test: MIC, standard agar-dilution assay (Table II); assay type: cell-based; parameters: unit not given here
Protocol: as §1

[4] = tested on: Staphylococcus aureus V41; test: MIC, standard agar-dilution assay (Table II); assay type: cell-based; parameters: unit not given here; settings: Staphylococcus aureus V41, penicillin-resistant strain
Protocol: as §1

[5] = tested on: Staphylococcus aureus X1.1; test: MIC, standard agar-dilution assay (Table II); assay type: cell-based; parameters: unit not given here
Protocol: as §1

[6] = tested on: Staphylococcus aureus X400; test: MIC, standard agar-dilution assay (Table II); assay type: cell-based; parameters: unit not given here; settings: Staphylococcus aureus X400, methicillin-resistant strain
Protocol: as §1

[7] = tested on: Staphylococcus epidermidis EPI1; test: MIC, standard agar-dilution assay (Table II); assay type: cell-based; parameters: unit not given here
Protocol: as §1

[8] = tested on: Staphylococcus epidermidis EPI2; test: MIC, standard agar-dilution assay (Table II); assay type: cell-based; parameters: unit not given here
Protocol: as §1

[9] = tested on: Streptococcus Group D 9960; test: MIC, standard agar-dilution assay (Table II); assay type: cell-based; parameters: unit not given here
Protocol: as §1

[10] = tested on: Streptococcus Group D X66; test: MIC, standard agar-dilution assay (Table II); assay type: cell-based; parameters: unit not given here
Protocol: as §1

[11] = tested on: Streptococcus pneumoniae Park I; test: MIC, standard agar-dilution assay (Table II); assay type: cell-based; parameters: unit not given here
Protocol: as §1

[12] = tested on: Streptococcus pyogenes C203; test: MIC, standard agar-dilution assay (Table II); assay type: cell-based; parameters: unit not given here
Protocol: as §1

[13] = tested on: Mycoplasma gallisepticum; test: MIC, broth-dilution microtiter test (Table III); assay type: cell-based; parameters: unit not given here
Protocol: as §1

[14] = tested on: Mycoplasma hyorhinis; test: MIC, broth-dilution microtiter test (Table III); assay type: cell-based; parameters: unit not given here
Protocol: as §1

[15] = tested on: Mycoplasma synoviae; test: MIC, broth-dilution microtiter test (Table III); assay type: cell-based; parameters: unit not given here
Protocol: as §1

[16] = tested on: Pasteurella haemolytica 22C; test: MIC, broth-dilution microtiter test (Table III); assay type: cell-based; parameters: unit not given here
Protocol: as §1

[17] = tested on: Pasteurella haemolytica 23C; test: MIC, broth-dilution microtiter test (Table III); assay type: cell-based; parameters: unit not given here
Protocol: as §1

[18] = tested on: Pasteurella haemolytica 41D; test: MIC, broth-dilution microtiter test (Table III); assay type: cell-based; parameters: unit not given here
Protocol: as §1

[19] = tested on: Pasteurella multocida 17E; test: MIC, broth-dilution microtiter test (Table III); assay type: cell-based; parameters: unit not given here; settings: bovine isolate
Protocol: as §1

[20] = tested on: Pasteurella multocida 22A; test: MIC, broth-dilution microtiter test (Table III); assay type: cell-based; parameters: unit not given here
Protocol: as §1

[21] = tested on: Pasteurella multocida 40G; test: MIC, broth-dilution microtiter test (Table III); assay type: cell-based; parameters: unit not given here
Protocol: as §1

[22] = tested on: Pasteurella multocida 60A; test: MIC, broth-dilution microtiter test (Table III); assay type: cell-based; parameters: unit not given here; settings: avian isolate
Protocol: as §1

[23] = tested on: Pasteurella multocida 68C; test: MIC, broth-dilution microtiter test (Table III); assay type: cell-based; parameters: unit not given here
Protocol: as §1

[24] = tested on: Staphylococcus aureus; test: MIC, broth-dilution microtiter test (Table III); assay type: cell-based; parameters: unit not given here
Protocol: as §1

[25] = tested on: Streptococcus sp. 80; test: MIC, broth-dilution microtiter test (Table III); assay type: cell-based; parameters: unit not given here
Protocol: as §1

[26] = tested on: Pasteurella multocida; test: Treatment of Pasteurella infections in chicks (Table V); assay type: in vivo, one-day-old chicks; settings: 30 mg/kg by subcutaneous injection one and four hours post challenge; for mortality at 30 mg/kg: Pasteurella multocida, sc, 4 h, read-out: Deaths in Treated Chicks/Number Treated (converted)
Procedure, shortened: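 One-day-old chicks challenged subcutaneously with avian P. multocida (0.1 ml of 10^-3 dilution of 20-hour tryptose broth culture). Esters given at 30 mg/kg subcutaneously at 1 and 4 hours post challenge. Untreated infected controls, ten per group.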

| SMILES | minimal inhibitory concentration (MIC) [1] | minimal inhibitory concentration (MIC) [2] | minimal inhibitory concentration (MIC) [3] | minimal inhibitory concentration (MIC) [4] | minimal inhibitory concentration (MIC) [5] | minimal inhibitory concentration (MIC) [6] | minimal inhibitory concentration (MIC) [7] | minimal inhibitory concentration (MIC) [8] | minimal inhibitory concentration (MIC) [9] | minimal inhibitory concentration (MIC) [10] | minimal inhibitory concentration (MIC) [11] | minimal inhibitory concentration (MIC) [12] | minimal inhibitory concentration (MIC) [13] | minimal inhibitory concentration (MIC) [14] | minimal inhibitory concentration (MIC) [16] | minimal inhibitory concentration (MIC) [17] | minimal inhibitory concentration (MIC) [18] | minimal inhibitory concentration (MIC) [19] | minimal inhibitory concentration (MIC) [20] | minimal inhibitory concentration (MIC) [21] | other results |
| --- | --- | --- | --- | --- | --- | --- | --- | --- | --- | --- | --- | --- | --- | --- | --- | --- | --- | --- | --- | --- | --- |
| CCC1OC(=O)CC(O)C(C)C(OC2OC(C)C(O)C(N(C)C)C2OC(C)=O)C(CC=O)CC(C)C(=O)C=CC(C)=CC1COC(=O)COc1ccccc1 (stereo not drawn) [Compound 35] | 1 | 1 | 0.125 | 0.125 | 0.125 | 0.125 | 0.125 | 0.125 | 0.125 | 0.125 | 0.03 | 0.06 | < 0.05 | 3.12 | 3.12 | 3.12 | 1.56 | 1.56 | 6.25 | 3.12 | minimal inhibitory concentration (MIC) [15]: 0.097; minimal inhibitory concentration (MIC) [22]: 1.56; minimal inhibitory concentration (MIC) [23]: 1.56; minimal inhibitory concentration (MIC) [24]: 0.39; minimal inhibitory concentration (MIC) [25]: 0.097; mortality at 30 mg/kg [26]: 10% |
| CCC1OC(=O)CC(O)C(C)C(OC2OC(C)C(O)C(N(C)C)C2OC(C)=O)C(CC=O)CC(C)C(=O)C=CC(C)=CC1COC(=O)C(C)(C)C (stereo not drawn) [Compound 67] | 1 | 1 | 0.25 | 0.25 | 0.25 | 0.25 | 0.25 | 0.25 | 0.25 | 0.25 | 0.06 | 0.125 | < 0.048 | 0.39 | 12.5 | 6.25 | 6.25 | 3.12 | 3.12 | 3.12 | minimal inhibitory concentration (MIC) [15]: < 0.048; minimal inhibitory concentration (MIC) [22]: 3.12; minimal inhibitory concentration (MIC) [23]: 1.56; minimal inhibitory concentration (MIC) [24]: 1.56; minimal inhibitory concentration (MIC) [25]: < 0.78; mortality at 30 mg/kg [26]: 80% |
| CCC1OC(=O)CC(O)C(C)C(OC2OC(C)C(O)C(N(C)C)C2O)C(CC=O)CC(C)C(=O)C=CC(C)=CC1COC(=O)CCc1ccccc1 (stereo not drawn) [Compound 54] | 0.25 | 0.25 | 0.125 | 0.25 | 0.125 | 0.25 | 0.125 | 0.25 | 0.125 | 0.125 | 0.015 | 0.06 | 0.097 | 0.78 | 3.12 | 3.12 | 3.12 | 0.78 | 6.25 | 3.12 | minimal inhibitory concentration (MIC) [22]: 1.56; minimal inhibitory concentration (MIC) [23]: 0.78; minimal inhibitory concentration (MIC) [24]: 0.195; minimal inhibitory concentration (MIC) [25]: 0.195; Deaths in Treated Chicks/Number Treated [26]: 0/10 |
| CCC1OC(=O)CC(O)C(C)C(OC2OC(C)C(OC(C)=O)C(N(C)C)C2OC(C)=O)C(CC=O)CC(C)C(=O)C=CC(C)=CC1COC(=O)[C@H](NC(=O)OC(C)(C)C)c1ccccc1 (stereo partly drawn) [Compound 39, 2',4'-Di-O-acetyl-23-O-(N-t-BOC-phenylglycyl)-OMT] | 2 | 2 | 0.5 | 1 | 0.5 | 1 | 0.5 | 1 | 0.5 | 0.5 | 0.03 | 0.125 | < 0.05 | 1.56 | 12.5 | 12.5 | 12.5 | 6.25 | 25 | 6.25 | minimal inhibitory concentration (MIC) [22]: 12.5; minimal inhibitory concentration (MIC) [23]: 12.5; minimal inhibitory concentration (MIC) [24]: 1.56; minimal inhibitory concentration (MIC) [25]: 0.195; mortality at 30 mg/kg [26]: 100% |
